1 compound from US20260240844A1, “INHIBITORS OF CHD1L AND USES THEREOF” (The Regents of the University of Colorado, a body corporate, priority 2023, published 2026) can be followed below.

SMILES strings stand for the structures. Entries after “also recorded” stand apart in the source; their conditions may differ. Where two headings read alike, the source gives them in different places.

Type in all cases: cell-based
Test [1] concerns PAR in SUM149PT cells. As to the kind of experiment: PAR immunofluorescence (nuclear / cytoplasmic PAR). The conditions noted are these: SUM149PT cells, single agent. The source says: Inhibition of CHD1L promotes PAR translocation to the cytoplasm. The main role of PARP1 during the DDR is to detect and signal the recruitment of repair machinery to the sites of DNA damage. For that, PARP1/2 catalyze PARylation, which is a pivotal […] protein modification, consisting of the addition of ADP-ribose units to the carboxyl group of acidic residues such as glutamate or aspartate on target proteins by using NAD^+ as substrate. CHD1L is one of the proteins that requires binding to these PAR chains for its activation and subsequent chromatin remodeling. Using immunofluorescence of PAR, the effect of PARPi and CHD1Li on PARylation in SUM149PT cells was investigated. […] In addition, the effect of doxorubicin on nuclear PARylation was reverted by CHD1L inhibition, causing an increase of PAR in the cytoplasm (FIG. 25A-C).

The test system of test [2] is MDA-MB-231 tumor organoids. Kind of test: Tumor organoid cytotoxicity, MDA-MB-231. The note with it: Homo sapiens, read-out: IC50 Olaparib (μM) in MDA-MB-231. On the procedure: Tumor organoid culture—Cell lines were cultured as tumor organoids by seeding 2,000 to 5,000 cells/well into uncoated 96 well U-bottom Ultra Low Attachment Microplates (Corning) using their corresponding medium. Cell aggregation was then promoted by centrifugation of the plates for 15 min at 1,000 rpm followed by the addition of Matrigel (Corning) to a 2-5% final concentration. Tumor organoids were maintained under standard cell culture conditions for 72 h prior to drug treatment.
Organoids were then transferred to a white solid bottom 96 well plate and incubated with an equal volume of CellTiter Glo 3D reagent (Promega) for 45 min on a shaker at 400 rpm. Luminescence was recorded using the EnVision plate reader (PerkinElmer) and values normalized to the controls using GraphPad Prism.

For test [3], the system named is SUM149PT cells. As to the kind of experiment: Cell cycle analysis by flow cytometry. The conditions noted are these: 24 h. On the procedure: Cells were then harvested by trypsinization, washed with PBS and fixed with 70% ice-cold ethanol for at least 2 h. The fixed cells were centrifuged at 300 g for 10 min, resuspended in PBS, centrifuged again, and stained in a 0.5 μg/mL DAPI solution in 0.1% Triton X-100-PBS for 30 min at RT. Samples were measured on a NovoCyte Penteon Cytometer (Agilent) and cell cycle distribution of single cells was analyzed using the automatic settings of FlowJo V10 (BD Biosciences).
Upon generation of DNA lesions, DNA damage checkpoints are also activated, which can lead to an arrest of the cell cycle, restraining chromosome segregation until the damaged DNA has been repaired. To study the effect of TNBC therapies and inhibition of CHD1L on the cell cycle, cells were stained with DAPI, and the cell subpopulations in G1, S and G2/M phases were analyzed by flow cytometry. […] Remarkably, the combination of these drugs with CHD1Li enhanced their effects, potentiating G2/M arrest caused by olaparib and G1 arrest caused by 5-FU (FIG. 23).
A general note: A flow cytometer gives signals particle by particle.

In test [4] the target is T1, CHD1L (Homo sapiens, UniProt Q86WJ1).
T1 sequence (Q86WJ1 1-897): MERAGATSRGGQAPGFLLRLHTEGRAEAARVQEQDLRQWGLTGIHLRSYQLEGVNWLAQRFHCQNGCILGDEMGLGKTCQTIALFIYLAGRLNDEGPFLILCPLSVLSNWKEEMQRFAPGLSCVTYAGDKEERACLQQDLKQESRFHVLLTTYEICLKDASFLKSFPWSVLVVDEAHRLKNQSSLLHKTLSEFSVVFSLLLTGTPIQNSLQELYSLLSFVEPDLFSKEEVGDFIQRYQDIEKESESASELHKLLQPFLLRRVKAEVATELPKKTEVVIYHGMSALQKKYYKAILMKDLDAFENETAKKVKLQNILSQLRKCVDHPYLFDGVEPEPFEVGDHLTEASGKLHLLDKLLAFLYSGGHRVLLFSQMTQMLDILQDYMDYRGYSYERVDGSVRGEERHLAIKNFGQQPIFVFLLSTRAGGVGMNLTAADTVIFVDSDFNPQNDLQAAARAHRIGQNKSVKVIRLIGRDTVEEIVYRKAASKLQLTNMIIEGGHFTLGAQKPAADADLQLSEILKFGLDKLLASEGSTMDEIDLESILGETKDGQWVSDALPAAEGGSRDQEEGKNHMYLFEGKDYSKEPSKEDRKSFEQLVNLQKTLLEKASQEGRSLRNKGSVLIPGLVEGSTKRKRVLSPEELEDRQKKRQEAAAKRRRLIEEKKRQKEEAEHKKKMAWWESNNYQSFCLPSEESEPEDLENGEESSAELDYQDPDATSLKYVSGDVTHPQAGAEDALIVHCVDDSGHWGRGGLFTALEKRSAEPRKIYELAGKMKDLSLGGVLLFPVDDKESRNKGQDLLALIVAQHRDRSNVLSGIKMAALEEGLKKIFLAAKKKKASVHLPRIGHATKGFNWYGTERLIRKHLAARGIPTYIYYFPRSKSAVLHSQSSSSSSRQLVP
As to the kind of experiment: CHD1L trapping (in situ subcellular fractionation, immunofluorescence). The conditions noted are these: single agent; SUM149PT + 0.01% MMS 4 h; BC and CRC cells. An excerpt:
Other studies on the role of CHD1L used cell lines with knockdown or knockouts of the gene encoding for CHD1L and have never been able to study the result of its enzymatic inhibition.

Test [5] deals with SUM149PT tumor organoids. Kind of test: Tumor organoid cytotoxicity (CellTiter Glo 3D), SUM149PT. The note with it: for IC50: Homo sapiens, SUM149PT. As to the method: Tumor organoid culture—Cell lines were cultured as tumor organoids by seeding 2,000 to 5,000 cells/well into uncoated 96 well U-bottom Ultra Low Attachment Microplates (Corning) using their corresponding medium.
Luminescence was recorded using the EnVision plate reader (PerkinElmer) and values normalized to the controls using GraphPad Prism.
(In general: ATP-based viability assays read luminescence as a measure of living cells.)

The term IC50 denotes the point on the concentration scale where inhibition reaches its midpoint. Take `O=C(c1cc(Cc2n[nH]c(=O)c3ccccc23)ccc1F)N1CCN(C(=O)C2CC2)CC1` [olaparib]: in test [1], the “cytoplasmic PAR” value is listed as “increased cytoplasmic PAR; also recorded: increase in cytoplasmic PAR”. Besides, the “nuclear PAR (PARylation)” value in test [1] (4 h) is “inhibition of nuclear PARylation”. Also, the concentration for half-maximal inhibition (IC50) in test [2] (MDA-MB-231, Compound 13 0 μM) turned out to be 102 µM; in test [2] (MDA-MB-231, Compound 13 2 μM), 18.7 µM; in test [2] (MDA-MB-231, Compound 13 2.25 μM) it was 12.1 µM; in test [2] (MDA-MB-231, Compound 13 2.5 μM), 3.1 µM; in test [5] (72 h, read-out: IC50 of the drug alone, SUM149PT tumor organoids, 72 h), 170 ± 27 µM; in test [5] (72 h, read-out: IC50 of the drug in combination, SUM149PT tumor organoids, 72 h, + non-lethal doses of Compound 6), 19 ± 0.56 µM. Moreover, the half-maximal inhibitory concentration (IC50) worked out at 400 µM in test [5] (read-out: IC50 Olaparib (μM) in SUM149PT, Compound 13 0 μM); 41.8 µM in test [5] (read-out: IC50 Olaparib (μM) in SUM149PT, Compound 13 2 μM); 13.4 µM in test [5] (read-out: IC50 Olaparib (μM) in SUM149PT, Compound 13 2.25 μM); 19 µM in test [5] (read-out: IC50 Olaparib (μM) in SUM149PT, Compound 13 2.5 μM). Moreover, in test [3], the “increase in the percentage of cells in the G2/M phase” value is 2 fold. Further, the “CHD1L trapping onto chromatin/nucleosomes” value in test [4] was “do not trap CHD1L; also recorded: did not show CHD1L trapping”. For the same compound, the “increase in potency of the chemotherapy” value in test [5] (SUM149PT BRCA1 mutant tumor organoids, + 1.9 μM Compound 6) came to 10 fold. Further, the “improvement of IC50 potency” value in test [5] (SUM149PT tumor organoids, combined with Compound 6) came out at 9 fold.
